Earlier results in US6387915B2, “Isoxazole-sulfonamide endothelin antagonists” (Pfizer Inc., priority 2000, dated 2002).

Tests used:
[1] = in man; Hypertension (1999) 33, 581-585
[2] = hypertensive patients; H. Krum et al., New Eng. J. Med. (1998) 338, 784-790
[3] = system: neointimal formation; settings: S. Douglas et al., Circ. Res, 75, 1994

CCCC[C@@H](NC(=O)[C@@H](Cc1cn(C(=O)OC)c2ccccc12)NC(=O)[C@H](CC(C)(C)C)NC(=O)N1[C@H](C)CCC[C@@H]1C)C(=O)O [BQ-788]
effect on peripheral resistance [1]: increase peripheral resistance

COc1ccccc1Oc1c(NS(=O)(=O)c2ccc(C(C)(C)C)cc2)nc(-c2ncccn2)nc1OCCO [Bosentan]
effect on blood pressure [2]: decreased blood pressure

CCCOc1ccc2c(c1)[C@@H](c1ccc(OC)cc1OCC(=O)O)[C@H](C(=O)O)[C@H]2c1ccc2c(c1)OCO2 [SB-209670]
reduction in neointimal formation relative to control animals [3]: 50%
